Measurements reported in US20070043079A1, “Heterocyclic compound containing nitrogen atom and use thereof” (priority 2003, published 2007).
Structures can show the parent of a compound that is named as a salt.

Target: T1, human CCR5 (Homo sapiens, UniProt P51681)
T1 construct: expressed in transfected cells
Experiment: Inhibition test on the binding of RANTES to CCR5 (RANTES-induced transient increase of Ca ion) in CCR5/CHO cells
Format: cell-based
Procedure: The whole procedures were carried out by preparing gene high expressing cells under basic genetic engineering methods by utilizing conventional methods. Also, as to the methods for the measurement in the present invention, improvement of measurement accuracy and/or modification of measurement sensitivity were adopted in order to evaluate the compound of the present invention. Detailed methods for the experiment are illustrated below.
(1) Isolation of Human CCR5 Genes
Human placental cDNA was prepared using Marathon cDNA amplification kit (Clontech). […]
Thus established human CCR5 stable over-expressing CHO cells (CCR5/CHO cells) were suspended in Ham's F-12 medium containing FBS (10%) and dispensed in […] portions into a 96 well plate. […] Transient increase in the intracellular Ca^2+ concentration induced by the human RANTES was measured using a Ca^2+ detector for 96 well use (Hamamatsu Photonics), and inhibition ration (%) of the test compound was calculated by the following calculation formula. Inhibition ratio=(Ec−Ea)/Ec×100 • Ec: measured value of Ca^2+ transient increase by RANTES • Ea: measured value of Ca^2+ transient increase by RANTES when a test compound was added

T1 sequence (P51681 whole entry): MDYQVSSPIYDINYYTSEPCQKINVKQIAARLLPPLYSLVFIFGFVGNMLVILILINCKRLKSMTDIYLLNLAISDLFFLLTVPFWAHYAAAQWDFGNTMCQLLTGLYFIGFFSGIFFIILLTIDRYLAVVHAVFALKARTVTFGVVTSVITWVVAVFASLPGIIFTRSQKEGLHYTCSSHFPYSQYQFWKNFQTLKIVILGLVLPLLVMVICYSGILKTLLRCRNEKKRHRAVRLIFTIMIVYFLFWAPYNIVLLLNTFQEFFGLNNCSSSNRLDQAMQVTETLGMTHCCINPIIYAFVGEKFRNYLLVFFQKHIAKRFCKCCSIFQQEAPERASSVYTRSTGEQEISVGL

Q: `COc1ccc(CN2CCC(c3ccc(CNC(=O)c4ccc(Cl)cc4)cc3)CC2)cc1OC` [Example 1, 4-chloro-N-{4-[1-(3,4-dimethoxybenzyl)piperidin-4-yl]benzyl}benzamide hydrochloride] was tested. Which IC50 did it give?
A: 4.16 µM
